Data as given in patent US20260256792A1, “TREATMENT OF CHRONIC SPONTANEOUS URTICARIA BY ADMINISTERING (R)-2-[3-[4-AMINO-3-(2-FLUORO-4-PHENOXY-PHENYL)PYRAZOLO[3,4-D]PYRIMIDIN-1-YL]PIPERIDINE-1-CARBONYL]-4-METHYL-4-[4-(OXETAN-3-YL)PIPERAZIN-1-YL]PENT-2-ENENITRILE” (priority 2023, published 2026).

What was measured:
[1] = tested on: moderate-to-severe chronic spontaneous urticaria (CSU); experiment: Phase 2 CSU study: Patient Global Impression of Change (PGIC); type: in vivo, human; conditions: for PGIC Mean (SD) / PGIC Median / PGIC category A little better, patients / PGIC category A little worse, patients / PGIC category Moderately better, patients / PGIC category Moderately worse, patients / PGIC category No change, patients / PGIC category Very much better, patients / PGIC category Very much worse, patients: omalizumab-naïve population; for PGIC LS Mean (SE) / PGIC LS Mean Diff vs. placebo (95% CI): omalizumab-naïve, ANCOVA
Source text: The study comprises a 12 week, randomized, double-blind, placebo-controlled, multi-center, dose-ranging efficacy and safety phase, followed by a 40 week open label extension (OLE) phase (see FIG. 1).
The study consists of three phases and an optional OLE phase.
The PGIS is a 1-item measure that asks participants to provide a self-assessment of their overall CSU severity for the past week on a 4 point scale. Response choices are: “None”, “Mild”, “Moderate” and “Severe”. The PGIC is a 1-item measure that asks the participant to provide a self-assessment of overall change in their CSU since the participant started taking the study medication on a 7-point scale. The response options range from “Very Much Better” to “Very Much Worse.” Patients were to complete questionnaires for the 2 items during their site visit.

[2] = tested on: immune thrombocytopenic purpura (ITP); conditions: cited from earlier work

## CC(C)(C=C(C#N)C(=O)N1CCC[C@@H](n2nc(-c3ccc(Oc4ccccc4)cc3F)c3c(N)ncnc32)C1)N1CCN(C2COC2)CC1 [rilzabrutinib, (R)-2-[3-[4-amino-3-(2-fluoro-4-phenoxy-phenyl)pyrazolo[3,4-d]pyrimidin-1-yl]piperidine-1-carbonyl]-4-methyl-4-[4-(oxetan-3-yl)piperazin-1-yl]pent-2-enenitrile]
[1]; 400 mg TID
  quality of life as measured by PGIC: improvement
[1]; Week 2, 400 mg BID
  PGIC Mean (SD): 1.61
  PGIC Median: 1.00
  PGIC category A little better, patients: 6 (19.4)
  PGIC category A little worse, patients: 1 (3.2)
  PGIC category Moderately better, patients: 5 (16.1)
  PGIC category Moderately worse, patients: 1 (3.2)
  PGIC category No change, patients: 6 (19.4)
  PGIC category Very much better, patients: 11 (35.5)
  PGIC category Very much worse, patients: 1 (3.2)
  PGIC LS Mean (SE): 1.53
  PGIC LS Mean Diff vs. placebo (95% CI): −0.81
[1]; Week 2, 400 mg QPM
  PGIC Mean (SD): 2.33
  PGIC Median: 3.00
  PGIC category A little better, patients: 7 (21.2)
  PGIC category A little worse, patients: 1 (3.0)
  PGIC category Moderately better, patients: 5 (15.2)
  PGIC category Moderately worse, patients: 0
  PGIC category No change, patients: 16 (48.5)
  PGIC category Very much better, patients: 3 (9.1)
  PGIC category Very much worse, patients: 1 (3.0)
  PGIC LS Mean (SE): 2.12
  PGIC LS Mean Diff vs. placebo (95% CI): −0.22
[1]; Week 2, 400 mg TID
  PGIC Mean (SD): 1.42
  PGIC Median: 1.00
  PGIC category A little better, patients: 7 (21.2)
  PGIC category A little worse, patients: 0
  PGIC category Moderately better, patients: 7 (21.2)
  PGIC category Moderately worse, patients: 1 (3.0)
  PGIC category No change, patients: 5 (15.2)
  PGIC category Very much better, patients: 12 (36.4)
  PGIC category Very much worse, patients: 1 (3.0)
  PGIC LS Mean (SE): 1.43
  PGIC LS Mean Diff vs. placebo (95% CI): −0.91
[1]; Week 4, 400 mg BID
  PGIC Mean (SD): 1.67
  PGIC Median: 1.00
  PGIC category A little better, patients: 6 (18.2)
  PGIC category A little worse, patients: 2 (6.1)
  PGIC category Moderately better, patients: 8 (24.2)
  PGIC category Moderately worse, patients: 0
  PGIC category No change, patients: 7 (21.2)
  PGIC category Very much better, patients: 9 (27.3)
  PGIC category Very much worse, patients: 1 (3.0)
  PGIC LS Mean (SE): 1.59
  PGIC LS Mean Diff vs. placebo (95% CI): −0.49
[1]; Week 4, 400 mg QPM
  PGIC Mean (SD): 2.24
  PGIC Median: 2.00
  PGIC category A little better, patients: 10 (29.4)
  PGIC category A little worse, patients: 5 (14.7)
  PGIC category Moderately better, patients: 4 (11.8)
  PGIC category Moderately worse, patients: 1 (2.9)
  PGIC category No change, patients: 7 (20.6)
  PGIC category Very much better, patients: 6 (17.6)
  PGIC category Very much worse, patients: 1 (2.9)
  PGIC LS Mean (SE): 2.06
  PGIC LS Mean Diff vs. placebo (95% CI): −0.02
[1]; Week 4, 400 mg TID
  PGIC Mean (SD): 1.14
  PGIC Median: 1.00
  PGIC category A little better, patients: 6 (20.7)
  PGIC category A little worse, patients: 1 (3.4)
  PGIC category Moderately better, patients: 5 (17.2)
  PGIC category Moderately worse, patients: 0
  PGIC category No change, patients: 4 (13.8)
  PGIC category Very much better, patients: 13 (44.8)
  PGIC category Very much worse, patients: 0
  PGIC LS Mean (SE): 1.18
  PGIC LS Mean Diff vs. placebo (95% CI): −0.90
[1]; Week 8, 400 mg BID
  PGIC Mean (SD): 1.42
  PGIC Median: 1.00
  PGIC category A little better, patients: 3 (9.1)
  PGIC category A little worse, patients: 1 (3.0)
  PGIC category Moderately better, patients: 8 (24.2)
  PGIC category Moderately worse, patients: 1 (3.0)
  PGIC category No change, patients: 6 (18.2)
  PGIC category Very much better, patients: 13 (39.4)
  PGIC category Very much worse, patients: 1 (3.0)
  PGIC LS Mean (SE): 1.43
  PGIC LS Mean Diff vs. placebo (95% CI): −0.41
[1]; Week 8, 400 mg QPM
  PGIC Mean (SD): 2.21
  PGIC Median: 2.00
  PGIC category A little better, patients: 9 (27.3)
  PGIC category A little worse, patients: 2 (6.1)
  PGIC category Moderately better, patients: 6 (18.2)
  PGIC category Moderately worse, patients: 1 (3.0)
  PGIC category No change, patients: 10 (30.3)
  PGIC category Very much better, patients: 4 (12.1)
  PGIC category Very much worse, patients: 1 (3.0)
  PGIC LS Mean (SE): 2.10
  PGIC LS Mean Diff vs. placebo (95% CI): 0.27
[1]; Week 8, 400 mg TID
  PGIC Mean (SD): 0.90
  PGIC Median: 1.00
  PGIC category A little better, patients: 2 (6.7)
  PGIC category A little worse, patients: 1 (3.3)
  PGIC category Moderately better, patients: 10 (33.3)
  PGIC category Moderately worse, patients: 0
  PGIC category No change, patients: 3 (10.0)
  PGIC category Very much better, patients: 14 (46.7)
  PGIC category Very much worse, patients: 0
  PGIC LS Mean (SE): 0.98
  PGIC LS Mean Diff vs. placebo (95% CI): −0.86
[1]; Week 12, 400 mg BID
  PGIC Mean (SD): 1.03
  PGIC Median: 0.50
  PGIC category A little better, patients: 1 (3.3)
  PGIC category A little worse, patients: 1 (3.3)
  PGIC category Moderately better, patients: 8 (26.7)
  PGIC category Moderately worse, patients: 1 (3.3)
  PGIC category No change, patients: 4 (13.3)
  PGIC category Very much better, patients: 15 (50.0)
  PGIC category Very much worse, patients: 0
  PGIC LS Mean (SE): 1.17
  PGIC LS Mean Diff vs. placebo (95% CI): −0.46
[1]; Week 12, 400 mg QPM
  PGIC Mean (SD): 2.12
  PGIC Median: 2.00
  PGIC category A little better, patients: 7 (20.6)
  PGIC category A little worse, patients: 2 (5.9)
  PGIC category Moderately better, patients: 6 (17.6)
  PGIC category Moderately worse, patients: 1 (2.9)
  PGIC category No change, patients: 11 (32.4)
  PGIC category Very much better, patients: 6 (17.6)
  PGIC category Very much worse, patients: 1 (2.9)
  PGIC LS Mean (SE): 2.00
  PGIC LS Mean Diff vs. placebo (95% CI): 0.38
[1]; Week 12, 400 mg TID
  PGIC Mean (SD): 0.97
  PGIC Median: 0.00
  PGIC category A little better, patients: 4 (12.9)
  PGIC category A little worse, patients: 2 (6.5)
  PGIC category Moderately better, patients: 5 (16.1)
  PGIC category Moderately worse, patients: 0
  PGIC category No change, patients: 3 (9.7)
  PGIC category Very much better, patients: 17 (54.8)
  PGIC category Very much worse, patients: 0
  PGIC LS Mean (SE): 0.98
  PGIC LS Mean Diff vs. placebo (95% CI): −0.64
[2]; ITP Phase 1/2
  treatment-emergent serious adverse events (TESAEs): no treatment-emergent serious adverse events
[2]; ITP, treatment for at least 12 weeks
  participants achieving the primary response endpoint: 50%
